Measured values published in patent US9493468B2, “Antifungal 5,6-dihydro-4H-pyrrolo[1,2-a][1,4]benzo-diazepines and 6H-pyrrolo[1,2-a][1,4]benzodiazepines substituted with heterocyclic derivatives” (Janssen Pharmaceutica NV, priority 2011, dated 2016).

Tests used:
Format in all cases: cell-based
[1] = system: Rhizomucor miehei; assay: Antifungal activity in vitro, resazurin growth inhibition: Rhizomucor miehei (IHEM13391)
Outline: (§1)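 Compound dilutions, with 64 μM as the highest in-test level, are spotted onto plates, then an inoculum of 10^3 cfu in RPMI-1640 plus 2% glucose (MOPS, pH 7.0±0.1) is added. Plates are incubated at species-dependent time and temperature, up to a week or more at 27° C. for dermatophytes.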

[2] = system: Scedosporium apiospermum; assay: Antifungal activity in vitro, resazurin growth inhibition: Scedosporium apiospermum (IHEM3817)
Outline: as §1

[3] = system: Cryptococcus neoformans; assay: Antifungal activity in vitro, resazurin growth inhibition: Cryptococcus neoformans (B66663)
Outline: as §1

[4] = system: Sporothrix schenkii; assay: Antifungal activity in vitro, resazurin growth inhibition: Sporothrix schenkii (B62482)
Outline: as §1

[5] = system: Scedosporium prolificans; assay: Antifungal activity in vitro, resazurin growth inhibition: Scedosporium prolificans (IHEM21157)
Outline: as §1

[6] = system: Trichophyton mentagrophytes; assay: Antifungal activity in vitro, resazurin growth inhibition: Trichophyton mentagrophytes (B70554)
Outline: (§2)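 Broth microdilution: RPMI-1640/L-Gln/2% glucose, MOPS pH 7.0±0.1; 10^3 cfu/well; top concentration 64 μM, 2- or 4-fold steps. Dermatophytes at 27° C., one week or more. Resazurin 0.005% (w/v) added, fluorescence 550/590 nm.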

[7] = system: Trichophyton rubrum; assay: Antifungal activity in vitro, resazurin growth inhibition: Trichophyton rubrum (B68183)
Outline: as §2

[8] = system: Candida parapsilosis; assay: Antifungal activity in vitro, resazurin growth inhibition: Candida parapsilosis (B66126)
Outline: as §1

[9] = system: Rhizopus oryzae; assay: Antifungal activity in vitro, resazurin growth inhibition: Rhizopus oryzae (IHEM5223)
Outline: as §1

[10] = system: Aspergillus fumigatus; assay: Antifungal activity in vitro, resazurin growth inhibition: Aspergillus fumigatus (B42928)
Outline: as §1

[11] = system: Microsporum canis; assay: Antifungal activity in vitro, resazurin growth inhibition: Microsporum canis (B68128)
Outline: as §2

Structure (SMILES)	Inf. K: Rhizomucor miehei IHEM13391, pIC50 [1]	Inf. H: Scedosporium apiospermum IHEM3817, pIC50 [2]	Inf. F: Cryptococcus neoformans B66663, pIC50 [3]	Inf. A: Sporothrix schenkii B62482, pIC50 [4]	Inf. I: Scedosporium prolificans IHEM21157, pIC50 [5]	Inf. G: Trichophyton mentagrophytes B70554, pIC50 [6]	Inf. C: Trichophyton rubrum B68183, pIC50 [7]	Inf. D: Candida parapsilosis B66126, pIC50 [8]	Inf. J: Rhizopus oryzae IHEM5223, pIC50 [9]	Inf. E: Aspergillus fumigatus B42928, pIC50 [10]	Inf. B: Microsporum canis B68128, pIC50 [11]
Fc1cccc2cc(C3=NCc4c(Cl)cccc4-n4cccc43)oc12 [Compound 127]	<4.19	4.80	5.22	<4.19	6.64	6.40	6.94	<4.19	<4.19	6.31	6.44
FC(F)(F)c1ccc(C2=NCc3ccccc3-n3cccc32)cn1 [Compound 87]	<4.19	<4.19	<4.19	<4.19	5.71	5.18	6.54	<4.19	<4.19	4.94	5.97
CC(F)(F)c1ccc(C2=NCc3c(Cl)cc(F)cc3-n3cccc32)cn1 [Compound 85]	<4.19	5.44	5.86	4.63	4.81	6.60	6.81	5.61	<4.19	6.28	6.73
Cc1ccc2cc(C3=NCc4c(Cl)cccc4-n4cccc43)oc2c1 [Compound 138]	<4.19	5.78	<4.19	<4.19	6.32	6.83	6.83	<4.19	<4.19	<4.19	6.99
Clc1cccc2c1CN=C(c1ccc3ccoc3c1)c1cccn1-2 [Compound 150]	<4.19	<4.19	4.57	5.52	5.93	6.15	8.25	4.68	<4.19	6.00	6.14
Fc1cc(F)c2c(c1)-n1cccc1C(c1cc3cc(Cl)cnc3o1)=NC2 [Compound 158]	<4.19	4.37	5.20	<4.19	6.00	5.17	5.72	<4.19	<4.19	<4.19	5.70
